Data taken from ChEMBL document CHEMBL3885881, “DrugMatrix”.

Organism: Rattus norvegicus
Test: DrugMatrix - Regimen: Daily Repeat
Format: toxicity, organism-based, Sprague-Dawley
Set-up: regimen Daily Repeat, gender Male, age 6-8 weeks
Settings: in vivo, po, route oral GAVAGE, vehicle .5 % CMC; for ABSOLUTE BASOPHIL / ABSOLUTE EOSINOPHIL / ABSOLUTE LYMPHOCYTE / ABSOLUTE MONOCYTE / ABSOLUTE SEGMENTED NEUTROPHIL / BASOPHIL / EOSINOPHIL / ERYTHROCYTE COUNT / HEMATOCRIT / HEMOGLOBIN / LEUKOCYTE COUNT / LYMPHOCYTE / MEAN CORPUSCULAR HEMOGLOBIN / MEAN CORPUSCULAR HEMOGLOBIN CONCENTRATION / MEAN CORPUSCULAR VOLUME / MONOCYTE / NEUTROPHIL / NUCLEATED RED BLOOD CELLS / PLATELET COUNT: tissue Blood; for ALANINE AMINOTRANSFERASE / ALBUMIN / ALKALINE PHOSPHATASE / ASPARTATE AMINOTRANSFERASE / BLOOD UREA NITROGEN / CARBON DIOXIDE / CHLORIDE / CHOLESTEROL / CREATINE PHOSPHOKINASE / CREATININE / GLUCOSE / LACTATE DEHYDROGENASE / LIPASE / PHOSPHORUS / POTASSIUM / SODIUM / TOTAL BILIRUBIN / TOTAL PROTEIN / URIC ACID: tissue Plasma
[1] = 0 mg/kg, 72 h, dose level Control, time 3 day
[2] = 0 mg/kg, 120 h, dose level Control, time 5 day
[3] = 0.1 mg/kg, 72 h, dose level Low, time 3 day

Compound: CCCN1C[C@H](CSC)C[C@@H]2c3cccc4[nH]cc(c34)C[C@H]21 [PERGOLIDE]
- ABSOLUTE BASOPHIL [1]: 0 CELLS/uL
- ABSOLUTE EOSINOPHIL [1]: 284.5 CELLS/uL
- ABSOLUTE LYMPHOCYTE [1]: 11670.5 CELLS/uL
- ABSOLUTE MONOCYTE [1]: 420.83 CELLS/uL
- ABSOLUTE SEGMENTED NEUTROPHIL [1]: 1024.17 CELLS/uL
- BASOPHIL [1]: 0%
- EOSINOPHIL [1]: 1.67%
- ERYTHROCYTE COUNT [1]: 5.38 x10E6/uL
- HEMATOCRIT [1]: 34.05%
- HEMOGLOBIN [1]: 12.75 G/DL
- LEUKOCYTE COUNT [1]: 13.4 x10E3/uL
- LYMPHOCYTE [1]: 88.33%
- MEAN CORPUSCULAR HEMOGLOBIN [1]: 23.73 pg
- MEAN CORPUSCULAR HEMOGLOBIN CONCENTRATION [1]: 37.43 G/DL
- MEAN CORPUSCULAR VOLUME [1]: 63.4 fL
- MONOCYTE [1]: 2.83%
- NEUTROPHIL [1]: 7.17%
- NUCLEATED RED BLOOD CELLS [1]: 0 /100WBC
- PLATELET COUNT [1]: 1184.67 x10E3/uL
- ALANINE AMINOTRANSFERASE [1]: 45.33 u/L
- ALBUMIN [1]: 4.3 G/DL
- ALKALINE PHOSPHATASE [1]: 388.83 u/L
- ASPARTATE AMINOTRANSFERASE [1]: 84.83 u/L
- BLOOD UREA NITROGEN [1]: 15.5 mg/dL
- CARBON DIOXIDE [1]: 27 mmol/L
- CHLORIDE [1]: 101.8 MEQ/L
- CHOLESTEROL [1]: 76.67 mg/dL
- CREATINE PHOSPHOKINASE [1]: 301 u/L
- CREATININE [1]: 0.21 mg/dL
- GLUCOSE [1]: 168.83 mg/dL
- LACTATE DEHYDROGENASE [1]: 294.83 u/L
- LIPASE [1]: 9.8 u/L
- PHOSPHORUS [1]: 13.25 mg/dL
- POTASSIUM [1]: 6.41 MEQ/L
- SODIUM [1]: 143.72 MEQ/L
- TOTAL BILIRUBIN [1]: 0.22 mg/dL
- TOTAL PROTEIN [1]: 5.98 G/DL
- URIC ACID [1]: 1.5 mg/dL
- ABSOLUTE BASOPHIL [2]: 0 CELLS/uL
- ABSOLUTE EOSINOPHIL [2]: 190.67 CELLS/uL
- ABSOLUTE LYMPHOCYTE [2]: 12549.5 CELLS/uL
- ABSOLUTE MONOCYTE [2]: 276 CELLS/uL
- ABSOLUTE SEGMENTED NEUTROPHIL [2]: 1067.17 CELLS/uL
- BASOPHIL [2]: 0%
- EOSINOPHIL [2]: 1.33%
- ERYTHROCYTE COUNT [2]: 5.66 x10E6/uL
- HEMATOCRIT [2]: 35.92%
- HEMOGLOBIN [2]: 13.65 G/DL
- LEUKOCYTE COUNT [2]: 14.08 x10E3/uL
- LYMPHOCYTE [2]: 89%
- MEAN CORPUSCULAR HEMOGLOBIN [2]: 24.12 pg
- MEAN CORPUSCULAR HEMOGLOBIN CONCENTRATION [2]: 38.03 G/DL
- MEAN CORPUSCULAR VOLUME [2]: 63.47 fL
- MONOCYTE [2]: 2%
- NEUTROPHIL [2]: 7.67%
- NUCLEATED RED BLOOD CELLS [2]: 0.17 /100WBC
- PLATELET COUNT [2]: 1251.67 x10E3/uL
- ALANINE AMINOTRANSFERASE [2]: 43.33 u/L
- ALBUMIN [2]: 4.22 G/DL
- ALKALINE PHOSPHATASE [2]: 365.67 u/L
- ASPARTATE AMINOTRANSFERASE [2]: 83.67 u/L
- BLOOD UREA NITROGEN [2]: 18.17 mg/dL
- CARBON DIOXIDE [2]: 28.67 mmol/L
- CHLORIDE [2]: 103.5 MEQ/L
- CHOLESTEROL [2]: 71.5 mg/dL
- CREATINE PHOSPHOKINASE [2]: 284.5 u/L
- CREATININE [2]: 0.21 mg/dL
- GLUCOSE [2]: 161.67 mg/dL
- LACTATE DEHYDROGENASE [2]: 259.67 u/L
- LIPASE [2]: 9.5 u/L
- PHOSPHORUS [2]: 12.45 mg/dL
- POTASSIUM [2]: 6.49 MEQ/L
- SODIUM [2]: 144.25 MEQ/L
- TOTAL BILIRUBIN [2]: 0.2 mg/dL
- TOTAL PROTEIN [2]: 6.1 G/DL
- URIC ACID [2]: 1.73 mg/dL
- ABSOLUTE BASOPHIL [3]: 0 CELLS/uL
- ABSOLUTE EOSINOPHIL [3]: 0 CELLS/uL
- ABSOLUTE LYMPHOCYTE [3]: 6272.67 CELLS/uL
- ABSOLUTE MONOCYTE [3]: 109.67 CELLS/uL
- ABSOLUTE SEGMENTED NEUTROPHIL [3]: 384.33 CELLS/uL
- BASOPHIL [3]: 0%
- EOSINOPHIL [3]: 0%
- ERYTHROCYTE COUNT [3]: 5.33 x10E6/uL
- HEMATOCRIT [3]: 33.93%
- HEMOGLOBIN [3]: 12.33 G/DL
- LEUKOCYTE COUNT [3]: 6.77 x10E3/uL
- LYMPHOCYTE [3]: 92.67%
- MEAN CORPUSCULAR HEMOGLOBIN [3]: 23.1 pg
- MEAN CORPUSCULAR HEMOGLOBIN CONCENTRATION [3]: 36.37 G/DL
- MEAN CORPUSCULAR VOLUME [3]: 63.57 fL
- MONOCYTE [3]: 1.67%
- NEUTROPHIL [3]: 5.67%
- NUCLEATED RED BLOOD CELLS [3]: 0 /100WBC
- PLATELET COUNT [3]: 1337.33 x10E3/uL
- ALANINE AMINOTRANSFERASE [3]: 45.67 u/L
- ALBUMIN [3]: 4.4 G/DL
- ALKALINE PHOSPHATASE [3]: 479.67 u/L
- ASPARTATE AMINOTRANSFERASE [3]: 81.67 u/L
- BLOOD UREA NITROGEN [3]: 15.33 mg/dL
- CARBON DIOXIDE [3]: 28.67 mmol/L
- CHLORIDE [3]: 102 MEQ/L
- CHOLESTEROL [3]: 85 mg/dL
- CREATINE PHOSPHOKINASE [3]: 214.67 u/L
- CREATININE [3]: 0.21 mg/dL
- GLUCOSE [3]: 139 mg/dL
- LACTATE DEHYDROGENASE [3]: 153.33 u/L
- LIPASE [3]: 9 u/L
- PHOSPHORUS [3]: 12.77 mg/dL
- POTASSIUM [3]: 6.37 MEQ/L
- SODIUM [3]: 146.5 MEQ/L
- TOTAL BILIRUBIN [3]: 0.23 mg/dL
- TOTAL PROTEIN [3]: 6.23 G/DL
- URIC ACID [3]: 1.53 mg/dL
